Test results taken from article PMC7583830 (Molecules, 2020).
“Also recorded” adds a separate entry of the source. Where a SMILES comes first, the peptide text is derived from it. Where no end group is shown, it is not given here. [ ]: non-standard residue; d: D form. The star is where a group is joined. DOTA = O=C(O)CN1CCN(CC(=O)O)CCN(CC(=O)*)CCN(CC(=O)O)CC1; NMeNle = CCCC[C@H](NC)C(=O)O

How the values were obtained:
[1] = Stability in fresh human serum (radio-HPLC); type: in vitro ADME; settings: 24 h incubation, 37 °C
Method: In vitro stability studies for the characterization of the metabolic stability of the radiolabeled peptide analogs in human serum were carried out with [^177Lu]Lu-1, [^177Lu]Lu-M1, [^177Lu]Lu-M2, [^177Lu]Lu-M3 and [^177Lu]Lu-M4 (n = 2). Additional stability studies in rat liver and kidney homogenates were performed for [^177Lu]Lu-1 (n = 2). Tissue homogenates were prepared from dissected organs by homogenization for 1 min at RT (IKA-Werke, Staufen, Germany) in 20 mM HEPES buffer pH 7.3 (30% v/v). The radioligands were incubated in the different media at a concentration of 500 pmol/mL (corresponding to an activity of 6–11 MBq). After incubation at 37 °C at different time points for up to 24 h, a 100 µl sample was taken in duplicates and analyzed by HPLC. Samples obtained from human serum and rat homogenates were treated with ACN at a ratio of 1:1.5 (v/v) to precipitate proteins, centrifuged (14,000 rpm, 2 min, centrifuge 5424, Eppendorf AG, Germany) and diluted with water at a ratio of 1:1 (v/v). A 100 µl aliquot of this solution was injected into the radio HPLC system. The degradation of the radioligand was evaluated based on the radiochemical purity after radiolabeling and the percentage of intact radiopeptide observed during incubation in the different media.

[2] = Metabolic stability in vivo and radiometabolites (radio-HPLC of blood, urine, liver, kidney); set-up: species or system BALB/c mice
Method: Metabolic biodistribution studies were performed in accordance with the ethical standards of the institution and approved by the Austrian Ministry of Science (BMWFW-66.011/0072-V/3b/2019). These studies were carried out in 5- to 7-week-old female BALB/c mice (n = 3) injected with [^177Lu]Lu-1 via a lateral tail vein. To allow monitoring of the metabolites by radio-HPLC, mice were injected with 30 MBq corresponding to 0.8 nmol total peptide. The mice were euthanized by cervical dislocation after different time points of 10 min, 30 min and 1 h p.i. and the urine and a venous blood sample were collected at the time of sacrifice. Liver and kidneys were dissected and homogenized in 20 mM HEPES buffer pH 7.3 at a ratio of 1:1 (v/v) with an Ultra-Turrax T8 homogenizer (IKA-Werke, Staufen, Germany) for 1 min at RT. Before radio-HPLC analysis, the samples (except urine) were treated with ACN at a ratio of 1:1 (v/v) to precipitate proteins, centrifuged at 2000× g for 2 min and diluted with water at a ratio of 1:1 (v/v). For HPLC analysis of the samples, the analytical HPLC system described above with a flow rate of 1 mL/min was used together with the following optimized water/ACN/0.1% TFA gradient to allow a better separation of [^177Lu]Lu-1 and the different radiometabolites: 0–7 min 1–7% ACN, 7–8 min 7–10% ACN, 8–18 min 10–18% ACN, 18–20 min 18–32% ACN, 20–27 min 32% ACN, 27–37 min […], 37–40 min 80% ACN, 40–40.1 min 80–1% ACN, 40.1–45 min 1% ACN. Urine was measured with the low-sensitivity loop of the radiodetector. The remaining samples were analyzed with the high-sensitivity loop due to the lower radioactivity present in blood, liver and kidney homogenate. To quantify the percentage of intact [^177Lu]Lu-1 and [^177Lu]Lu-M1 showing some overlap in the radiochromatogram when using the high-sensitivity loop of the radiodetector, the two radiopeptides were co-injected at different known ratios to enable a more accurate separation and integration of the two peaks (see supporting Figure S4). Mice from the metabolic biodistribution studies were subjected to a further dissection of all remaining tissues (blood, lung, heart, femur, spleen, muscle, intestine, pancreas and stomach). All organs, also including liver and kidneys, were weighed, and their radioactivity was measured in the gamma counter together with a standard and the residual body. To quantify the uptake of radioactivity in liver and kidneys, a part of liver and kidney homogenate was measured in the gamma counter to extrapolate the radioactivity for the whole organ.

[3] = Distribution coefficient (logD) in octanol/PBS; type: physicochemical; settings: octanol/PBS pH 7.4; read-out: logD
Method: The mixture was vigorously vortexed at room temperature over a period of 15 min using a small shaker (MS3 Basic, IKA, Staufen, Germany) with speed of 1500 rpm.

[4] = Protein binding in human serum by size exclusion chromatography; type: in vitro ADME; settings: 24 h incubation
Method: For protein binding assessment, the radiolabeled DOTA-peptides were incubated in fresh human serum at 37 °C (500 pmol/mL, n = 2). After 1, 4 and 24 h of incubation, two samples were taken for each time point and analyzed by Sephadex G-50 size-exclusion chromatography (GE Healthcare Illustra, Little Chalfont, UK). The percentage of protein binding was determined by measuring the column and the eluate with the gamma-counter.

[5] = tested on: neprylisin-1 and neprylisin-2; experiment: Incubation in vitro with neprylisin-1 and neprylisin-2; settings: cited from earlier work
[6] = tested on: A431-CCK2R xenografts; settings: mouse, in vivo; cited from earlier work
[7] = set-up: method as in PMID 29896292; settings: radiolabeled with different radiometals; cited from earlier work
[8] = set-up: method as in doi:10.2174/1874471010902040304; settings: kidney homogenate; labeled with indium-111; cited from earlier work
[9] = fresh human serum; settings: 37 °C, up to 24 h
[10] = soluble phase extracted from liver homogenate of BALB/c mice injected with [^177Lu]Lu-1; settings: female BALB/c mice, up to 1 h p.i.
[11] = urine of BALB/c mice injected with [^177Lu]Lu-1; settings: female BALB/c mice, up to 1 h p.i.
[12] = soluble phase extracted from kidney homogenate of BALB/c mice injected with [^177Lu]Lu-1; settings: female BALB/c mice, up to 1 h p.i.
[13] = blood of BALB/c mice injected with [^177Lu]Lu-1; settings: female BALB/c mice, up to 1 h p.i.
[14] = blood of patients injected with ^111In-labeled DOTA-MG11; settings: up to 10 min after injection; cited from earlier work

## CCCC[C@@H](C(=O)O)N(C)C(=O)[C@H](Cc1c[nH]c2ccccc12)NC(=O)CNC(=O)[C@H](Cc1ccc(O)cc1)NC(=O)[C@@H]1CCCN1C(=O)[C@@H](CCC(=O)O)NC(=O)CN1CCN(CC(=O)O)CCN(CC(=O)O)CCN(CC(=O)O)CC1 [[^177Lu]Lu-M3, metal not drawn] ({DOTA}-[dE]PYGW[NMeNle]-OH; C-terminus assumed)
[1]
  intact radiopeptide: 29.7 ± 0.8%
[1]; listed as radiolabeled M3
  intact radiopeptide: less than 30%
[2]; blood, 30 min p.i., mice injected i.v. with [177Lu]Lu-1
  percentage of intact radiopeptide / radiometabolite: 17.0%
[2]; blood, 60 min p.i., mice injected i.v. with [177Lu]Lu-1
  percentage of intact radiopeptide / radiometabolite: 20.4%
[2]; blood, different time points up to 1 h p.i.
  amount of radiometabolite: < 21%
[2]; kidney, 30 min p.i.
  percentage of intact radiopeptide / radiometabolite: 7.9%
[2]; liver, 30 min p.i.
  percentage of intact radiopeptide / radiometabolite: 8.5%
[2]; liver, 60 min p.i.
  percentage of intact radiopeptide / radiometabolite: 5.6%
[2]; urine, 30 min p.i.
  percentage of intact radiopeptide / radiometabolite: 9.5%
[2]; urine, 60 min p.i.
  percentage of intact radiopeptide / radiometabolite: 9.8%
[3]
  logD: -4.13 ± 0.11
[4]
  fraction unbound: 0.766

## DOTA-(DGlu)6-Ala-Tyr-Gly-Trp-Met-Asp-Phe-NH2
[5]
  cleaved bond: Asp-Phe

## DOTA-(DGlu)6-Ala-Tyr-Gly-Trp-Met-Asp-Phe-NH2 (AYGWMDF; DOTA-(D-Glu)6 N-terminus, C-amide; radiolabel; printed: Ala-Tyr-Gly-Trp-Met-Asp-Phe-) [PP-F11]
[6]
  tumor uptake: ~ 6.7 % IA/g

## DOTA-(DGlu)6-Ala-Tyr-Gly-Trp-Nle-Asp-Phe-NH2
[5]
  not cleaved: seemed to be resistant against neprylisins

## DOTA-(DGlu)6-Ala-Tyr-Gly-Trp-Nle-Asp-Phe-NH2 [PP-F11N]
[6]
  tumor uptake: 6.9 % IA/g

## DOTA-DGlu-Ala-Tyr-Gly-Trp-(N-Me)Nle-Asp-1Nal-NH2 [DOTA-MGS5]
[7]
  cell uptake: > 50%
[6]
  tumor-to-kidney ratio: 4–6

## DOTA-DGlu-Ala-Tyr-Gly-Trp-Met-Asp-Phe-NH2 ({DOTA}-[dE]AYGWMDF-NH2; also: 111In complex) [DOTA-MG11, truncated MG analog, results quoted for the indium-111 labeled form]
[8]
  time to complete degradation: ≤ 10 min

## DOTA-DGlu-Pro-Tyr-Gly-Trp-(N-Me)Nle-Asp
[9]
  not cleaved: 98.1 ± 0.3% after 24 h incubation

## DOTA-DGlu-Pro-Tyr-Gly-Trp-(N-Me)Nle-Asp-1Nal-NH2
[10]
  cleaved bond: 1Nal-NH2 and Asp-1Nal and (N-Me)Nle-Asp and Trp-(N-Me)Nle, minor and Gly-Trp and Tyr-Gly
  not cleaved: M8 not found in any of the tissues examined
[11]
  cleaved bond: 1Nal-NH2, minor and Asp-1Nal, major and (N-Me)Nle-Asp and Gly-Trp, major
  not cleaved: M8 not found in any of the tissues examined
[12]
  cleaved bond: 1Nal-NH2 and Asp-1Nal and (N-Me)Nle-Asp and Gly-Trp and Tyr-Gly and Pro-Tyr, minor, 60 min
  not cleaved: M8 not found in any of the tissues examined
[9]
  not cleaved: 96.2 ± 1.3% intact peptide after 24 h incubation
[13]
  cleaved bond: 1Nal-NH2, minor and Asp-1Nal, minor and (N-Me)Nle-Asp, minor and Gly-Trp, minor
  not cleaved: M8 not found in any of the tissues examined

## {DOTA}-[dE]AYGWMDF-NH2
[5]
  cleaved bond: Asp-Phe; also recorded: Gly-Trp
[14]
  fragment found: DOTA-DGlu-Ala-Tyr, 10 min after injection

## {DOTA}-[dE]PYGW
[9]
  not cleaved: 98.4 ± 0.01% after 24 h incubation
